# Target: farnesyl protein transferase
# Test: Inhibition of farnesyl protein transferase (test of WO 95/10514)
# Format: biochemical
# Conditions: percent inhibition relative to DMSO vehicle control, IC50 estimated
# Excerpt: The compounds of the invention can be tested by standard methods, for example by those published in published PCT application WO 95/10514 published Apr. 20, 1995 (starting at page 61), the disclosure of which is hereby incorporated herein by reference. Particularly relevant assays and studies include In vitro enzyme assays, Cell-Based Assays, Cell Mat Assays, and In Vivo Anti-Tumor Studies.
# Such Assays and Studies indicate that compounds of the Formula I above are selective inhibitors of Ras-FPT and can be used as anti-tumor agents. The following Table presents IC50 values obtained in the test for Inhibition of farnesyl protein transferase, reported in published PCT application WO 95/10514. Percent inhibition was calculated relative to the DMSO vehicle control, and an IC50 value was estimated.
row,Structure (SMILES),IC50 [nM]
1,CN1Cc2cccnc2C(N2CCN(C(=O)Cc3cc[n+]([O-])cc3)CC2)c2ccc(Cl)cc21 (stereo not drawn) [Example 34],2700
2,"N#CNC(=NCc1ccncc1)N1CCC(=C2c3ccc(Cl)cc3OCc3cccnc32)CC1 [Example 3, 4-(8-Chloro-5,11-dihydro[1]benzoxepino[4,3-b]pyridin-11-ylidene)-N-cyano-N'-(4-pyridinylmethyl)-1-piperidine-carboximidamide]",> 42
3,"O=C(Cc1ccncc1)N1CCN(C2c3ccc(Cl)cc3SCc3cccnc32)CC1 (stereo not drawn) [Example 8, 4-(8-Chloro-5,11-dihydro-[1]benzothiepino[4,3-b]pyridin-11-yl)-1-(4-pyridinyl-acetyl)piperazine]",320
4,"CN1Cc2cccnc2C(N2CCN(C(=O)Cc3ccncc3)CC2)c2ccc(Cl)cc21 (stereo not drawn) [Example 35, 4-(8-Chloro-6,11-dihydro-6-methyl-5H-pyrido[3,2-c][1]benzazepin-11-yl)-1-(4-pyridine-acetyl)piperazine]",840
5,"O=C(Cc1cc[n+]([O-])cc1)N1CCN(C2c3ccc(Cl)cc3SCc3cccnc32)CC1 (stereo not drawn) [Example 9A, 4-(8-Chloro-5,11-dihydro-[1]benzothiepino[4,3-b]pyridin-11-yl)-1-(4-pyridine-acetyl)piperazine N1-oxide]",790
6,"O=C(Cc1cc[n+]([O-])cc1)N1CCN(C2c3ccc(Cl)cc3OCc3cccnc32)CC1 (stereo not drawn) [Example 1, 4-(8-Chloro-5,11-dihydro[1]benzoxepino[4.3-b]pyridin-11-yl)-1-(4-pyridine-acetyl)-piperazine N1-oxide]",1280
7,"O=C(CSc1ccncc1)N1CCN(C2c3ccc(Cl)cc3SCc3cccnc32)CC1 (stereo not drawn) [Example 14A, 4-(8-Chloro-5,11-dihydro-[1]benzothiepino[4,3-b]pyridin-11-yl)-1-[(4-pyridinyl-thio)acetyl]piperazine]",1000
8,"O=C(Cc1cc[n+]([O-])cc1)N1CCC(=C2c3ccc(Cl)cc3OCc3cccnc32)CC1 [Example 7B, 4-(8-Chloro-5,11-dihydro[1]benzoxepino[4,3-b]pyridin-11-ylidene)-1-(4-pyridine-acetyl)piperidine N1-oxide]",1520
9,"O=C(CC1CCNCC1)N1CCC(=C2c3ccc(Cl)cc3SCc3cccnc32)CC1 [Example 12B, 4-(8-Chloro-5,11-dihydro-[1]benzothiepino[4,3-b]pyridin-11-ylidene)-1-(4-pipeeridine-acetyl)piperidine]",590
10,"O=C(Cc1cc[n+]([O-])cc1)N1CCC(=C2c3ccc(Cl)cc3SCc3cccnc32)CC1 [Example 9B, 4-(8-Chloro-5,11-dihydro-[1]benzothiepino[4,3-b]pyridin-11-ylidene)-1-(4-pyridine-acetyl)piperidine N1-oxide]",520
11,CSC(=NC#N)N1CCC(=C2c3ccc(Cl)cc3OCc3cccnc32)CC1 [Example 2],> 140
12,"CC(C)(C)OC(=O)N1CCC(CC(=O)N2CCC(=C3c4ccc(Cl)cc4SCc4cccnc43)CC2)CC1 [Example 11B, 1,1 -Dimethylethyl 4-[2-[4-(8-chloro-5,11-dihydro-[1]benzothiepino[4,3-b]pyridin-11-ylidene)-1-piperidinyl]2-oxoethyl]-1-piperidine-carboxylate]",3200

# The next lines start with the values.
row,IC50 [nM],Structure (SMILES)
1,300,"CSC(=NC#N)N1CCN(C2c3ccc(Cl)cc3SCc3cccnc32)CC1 (stereo not drawn) [Example 18, Methyl 4-(8-chloro-5,11-dihydro-[1]benzothiepino[4,3-b]pyridin-11-yl)-N-cyano-1-piperazinecarboximidothioate]"
2,61,"N#CNC(=NCc1ccncc1)N1CCN(C2c3ccc(Cl)cc3SCc3cccnc32)CC1 (stereo not drawn) [Example 19, 4-(8-Chloro-5,11-dihydro[1]benzothiepino[4,3-b]pyridin-11-yl)-N-cyano-N'-(4-pyridinylmethyl)-1-piperazine-carboximidamide]"
3,1790,"CN1CCC(CC(=O)N2CCC(=C3c4ccc(Cl)cc4SCc4cccnc43)CC2)CC1 [Example 26, 4-(8-Chloro-5,11-dihydro[1]benzothiepino[4,3-b]pyridin-11-ylidene)-1-(1-methyl-4-piperidine-acetyl)-piperidine]"
4,> 1100,"CC1(C)c2cccnc2C(=C2CCN(C(=O)Cc3cc[n+]([O-])cc3)CC2)c2ccc(Cl)cc2S1(=O)=O [Example 30, 4-(8-Chloro-5,11-dihydro-5,5-dimethyl-[1]benzothiepino[4,3-b]pyridin-11-ylidene)-1-(4-pyridine-acetyl)piperidine-6,6-dioxide N1-oxide]"
5,> 1200,"O=C(CC1CCNCC1)N1CCC(=C2c3ccc(Cl)cc3S(=O)(=O)Cc3cccnc32)CC1 [Example 28, 4-(8-Chloro-5,11-dihydro-[1]benzothiepino[4,3-b]pyridin-11-ylidene)-1-(4-piperidine-acetyl)piperidine-6,6-dioxide]"
6,> 370,"N#CN=C(NCc1ccc2c(c1)OCO2)N1CCN(C2c3ccc(Cl)cc3SCc3cccnc32)CC1 (stereo not drawn) [Example 20A, N-[(1,3-Benzodioxol-5-yl)methyl]-4-(8-chloro-5,11-dihydro[1]benzothiepino[4,3-b]pyridin-11-yl)-N'-cyano-1-piperazine-carboximidamide]"
7,> 113,N#CN=C(NCc1ccc2c(c1)OCO2)N1CCC(=C2c3ccc(Cl)cc3SCc3cccnc32)CC1 [Example 20B]
8,200,CSC(=NC#N)N1CCC(=C2c3ccc(Cl)cc3SCc3cccnc32)CC1 [Example 22]
9,> 1100,"NC(=O)N1CCC(CC(=O)N2CCC(=C3c4ccc(Cl)cc4S(=O)(=O)Cc4cccnc43)CC2)CC1 [Example 29, 4-[2-[4-(8-Chloro-5,11-dihydro-[1]benzothiepino[4,3-b]pyridin-11-ylidene)-1-piperidinyl]-2-oxoethyl]-1-piperidinecarboxamide-6,6-dioxide]"
10,38,N#CN=C(NCc1ccc[n+]([O-])c1)N1CCC(=C2c3ccc(Cl)cc3SCc3cccnc32)CC1 [Example 24]
11,> 1200,CC(C)(C)OC(=O)N1CCC(CC(=O)N2CCC(=C3c4ccc(Cl)cc4S(=O)(=O)Cc4cccnc43)CC2)CC1 [Example 27]
12,560,"O=C(Cc1ccncc1)N1CCC(=C2c3ccc(Cl)cc3S(=O)(=O)Cc3cccnc32)CC1 [Example 16B, 4-(8-Chloro-5,11-dihydro-[1]benzothiepino[4,3-b]pyridin-11-ylidene)-1-(4-pyridine-acetyl)piperidine 6,6-dioxide]"
13,> 1300,"CN1Cc2cccnc2C(N2CCN(C(=O)CC3CCNCC3)CC2)c2ccc(Cl)cc21 (stereo not drawn) [Example 39, 4-(8-Chloro-6,11-dihydro-6-methyl-5H-pyrido[3,2-c][1]benzazepin-11-yl)-1-(4-piperidine-acetyl)piperazine]"
14,190,"O=C(Cc1ccncc1)N1CCC(=C2c3ccc(Cl)cc3SCc3cccnc32)CC1 [Example 25, 4-(8-Chloro-5,11-dihydro[1]benzothiepino[4,3-b]pyridin-11-ylidene)-1-(pyridine-4-acetyl)-piperidine]"
15,140,"CN1Cc2cccnc2C(N2CCN(C(=NCc3ccncc3)NC#N)CC2)c2ccc(Cl)cc21 (stereo not drawn) [Example 37, 4-(8-Chloro-6,11-dihydro-6-methyl-5H-pyrido[3,2-c][1]benzazepin-11-yl)-N-cyano-N'-(4-pyridinylmethyl)-1-piperazine-carboximidamide]"

# Source: patent US6130229A, “Tricyclic compounds having activity as RAS-FPT inhibitors” (Schering Corporation, priority 1997, dated 2000)
